Measured values reported in ChEMBL document CHEMBL3507680, “University of Dundee, Gates Library screen for HepG2 cell viability”.

experiment: Human HepG2 cell viability assay in 384 well format; format: toxicity, cell-based; design: dose 125 nL, time 70.5 hour; cytotoxicity at 70.5 h: concentration not given beside the values; details: HepG2 cells, read-out: Inhibition

| SMILES | cytotoxicity at 70.5 h |
| --- | --- |
| c1cnc(N2CCOCC3(C2)CN(c2nccs2)CCO3)nc1 (stereo not given) | -7.1% |
| CC(NC(=O)CCCc1ccc(Cl)cc1)c1n[nH]c(=O)[nH]1 (stereo not given) | -0.585% |
| COc1c(C)cnc(CN2CCC(N(C)C(C)C(N)=O)CC2)c1C (stereo not given) | -2.64% |
| c1cnc(N2CCO[C@H]3CN(Cc4cc[nH]n4)C[C@H]32)cn1 | -7.22% |
| CCn1ccnc1CN1CCN(CC(O)Cn2cccn2)CC1 (stereo not given) | -10.4% |
| CC(C)Cc1nc(OCC(N)=O)c(C#N)c2c1CCC2 | 14.5% |
| c1ccc(-c2nc3c(c(NCCCn4cncn4)n2)CCNCC3)nc1 | -13.5% |
| Fc1ccc(N2CCOC3(COCCN(c4ncccn4)C3)C2)cc1 (stereo not given) | -6.83% |
| CO[C@H]1CN(C(=O)OC(C)(C)C)CC1NCc1cc[nH]c1 (stereo not given in full) | -20.4% |
| O=C(Cc1csc(-c2ccccc2)n1)N[C@@H](C(=O)O)c1ccccc1 | -9.17% |
| O=C1CCC2(CCN(S(=O)(=O)c3ccccc3)CC2)N1CC1CC1 | -12.5% |
| Cn1cnc(CNC(=O)c2ccccc2-n2cc(CN)cn2)c1 | -5.11% |
| CC1=Nc2c(c(=O)[nH]n2C2CCCC2)C(c2ccc(O)cc2)S1 (stereo not given) | -22.9% |
| Cc1cc(CN2CCOC(CN(C)c3cccnn3)C2)no1 (stereo not given) | -11.5% |
| COc1cc(N2CCN(CC3CC3)c3nc(C)ccc3C2)ncn1 | 0.313% |
| CS(=O)(=O)NC1CCN(C(=O)c2coc(CN3CCOCC3)c2)CC1 | -2.89% |
| COc1cc(NC2CCN(C3CCS(=O)(=O)CC3)CC2)ncn1 | -20.6% |
| O=C(O)c1csc(S(=O)(=O)N2CCCc3cccc(OC(F)F)c32)c1 | -5.21% |
| Cn1c(NCc2ccc(C(N)=O)cc2)nc2cc(Cl)ccc21 | 18.9% |
| O=C(c1ccc(F)cc1)N1CCN2C[C@H](Oc3cccnc3)C[C@H]2C1 | 0.416% |
| CCc1nccc(CN2CCCC(CNC(=O)c3ccccn3)C2)n1 (stereo not given) | -3.62% |
| CCc1nc(C2CCCN(C(=O)c3ccccc3F)C2)no1 (stereo not given) | -2.67% |

| SMILES | cytotoxicity at 70.5 h |
| --- | --- |
| Cc1ccc(CN2C[C@@H]3COC[C@]3(COc3ccc(C#N)cn3)C2)o1 | 7.17% |
| CC(=O)N1CCN(C2CCCCc3ccccc32)CC1 (stereo not given) | -1.72% |
| CC(C)OCCS(=O)(=O)NC1CCN(C2CCCC2)C1 (stereo not given) | 8.61% |
| CN(C)CC1CSCCCN1C(=O)c1ccc(C(C)(C)C)cc1 (stereo not given) | -0.949% |
| O=C(c1cc2c([nH]c1=O)CCC2)N1CCCC1c1ccc(F)cc1 (stereo not given) | -3.95% |
| O=C(NCc1cccs1)[C@@H]1CC[C@@H]2[C@@H](CCN2C2CCOCC2)O1 | -14.8% |
| CS(=O)(=O)NCCNc1ncnc2cccc(F)c12 | -6.37% |
| CC(=O)N1C[C@H](NC(=O)c2csc(C(C)C)c2)[C@@H](C(C)C)C1 | 14.4% |
| N#CC1(NC(=O)c2ccc(F)cc2OC(F)F)CCOCC1 | -10.6% |
| O=C(CCNC(=O)c1ccccc1)Nc1ccncc1 | -18% |
| O=C(c1cc(C2CC2)[nH]n1)N1CCN(c2nccs2)CC1 | -11.6% |
| Cc1ncccc1OC1(C(=O)NCCNc2ccccc2)CCNCC1 | -5.68% |
| O=C(NCCOc1ccc(F)c(F)c1)NCc1cccc(CO)c1 | -9.23% |
| COCC(=O)NC[C@H]1C[C@@H]2CCN1C[C@@H]2c1cc(-c2cccs2)nn1C | -7.87% |
| COc1cccc(CCC(=O)N2CCC[C@@H](N)[C@@H]2c2ccccc2F)c1 | -1.81% |
| COc1cc(C(N)=O)c(N(C)S(C)(=O)=O)cc1OC | -9.06% |
| O=S(=O)(C1CC1)N1CCO[C@H]2[C@@H](Oc3cccnc3)CC[C@@H]21 | -5.72% |
| CN(C)c1cccc(C(=O)N2CCCc3cc(OC(F)(F)F)ccc32)c1 | -9.8% |
| COC(=O)N1CC[C@@]2(C1)[C@H](OC)CN(c1ccccc1)S2(=O)=O | -11.4% |
| COCCN(C(=O)c1ccoc1C)c1ccc(C#N)cc1 | -4.2% |
| Fc1ccc(C2(CNC3=NCCN3)CCCC2)cc1 | 3.33% |
| Cc1cccc(S(=O)(=O)N2C[C@H]3C[C@H](C(=O)NC4CCC4)[C@@H](C2)O3)c1 | -10.5% |

| SMILES | cytotoxicity at 70.5 h |
| --- | --- |
| Cc1noc(C)c1CN(C)Cn1nccc1-c1cccnc1 | 10.8% |
| COc1cccc(CSCC2=Nc3ccccc3S(=O)(=O)N2)c1 | 3.53% |
| O=C(C1CC=CC1)N1CC[C@@H]2O[C@H](COCC3CCOCC3)CC[C@@H]21 | -6.77% |
| CC(=O)NCC(Cc1cccc(F)c1)n1cccc1 (stereo not given) | -5.86% |
| O=C1[C@H]2CN(CC3CC3)C[C@H]2CN1Cc1cccc(F)c1 | -7.25% |
| CC(C)CCN1N=C(C(=O)N2CCCCCC2)S(=O)(=O)c2ccccc21 | 21.7% |
| Cc1cn(-c2ccccc2)nc1NS(=O)(=O)c1cc(C(=O)O)ccc1Cl | -9.13% |
| CCCc1n[nH]c(C2CN(CCNS(=O)(=O)CC)CCO2)n1 (stereo not given) | 7.53% |
| CC(=O)N1CCC(NC(=O)c2cc(Cl)ccc2-n2cnnn2)CC1 | -6.61% |
| CCc1ccccc1-c1cc(OC)nc(N)n1 | -8.45% |
| CC(NC(=O)NCCCn1cncn1)c1ccccc1Cl (stereo not given) | -2.04% |
| CC(=O)NC1CCN(c2ccnc(C3CCNCC3)c2)CC1 | -5.48% |
| O=C(NCCCC(=O)N1Cc2ccccc2C1)NCc1cccnc1 | -0.375% |
| COc1ccc(-c2nccn2CC(O)CN2CCCC2)c(F)c1 (stereo not given) | 28.4% |
| CCn1ccc(NS(=O)(=O)c2cccc(COC)c2)n1 | 8.56% |
| CC(C)c1nnc(NC(=O)Cc2csc(-c3nnc[nH]3)n2)s1 | 22.4% |
| c1cncc(O[C@H]2CC[C@H]3[C@H]2OCCN3C2CCC2)c1 | -3.23% |
| COCc1nc(C(=O)N2CCN(Cc3cc(C)on3)CC2)cs1 | -5.75% |
| O=C(O)CCn1ccc(=O)c2ccccc21 | -3.76% |
| Cc1cnc2n1CCN(C)C21CCN(C(=O)CC(C)C)CC1 | 3.32% |
| COCCN1C(=O)CO[C@H]2CN(Cc3ccccc3Cl)C[C@@H]21 | -9.25% |
| COc1ccccc1C1=NOC(CC2(C(=O)O)CCOCC2)C1 (stereo not given) | 19.1% |

| SMILES | cytotoxicity at 70.5 h |
| --- | --- |
| CNC(=O)CCc1cc(C)nc(C2CCCN2)n1 (stereo not given) | -12.5% |
| CCC[C@@H]1CN(C(=O)CCc2ccco2)C[C@H]1NS(C)(=O)=O | 29% |
| O=C(O)CCCN1C[C@@H](c2ccccc2F)[C@@]2(CCCCC(=O)N2)C1 | -2.59% |
| COC(=O)CC(NC(=O)c1ccc(OC)cc1OC)c1cccs1 (stereo not given) | -11.2% |
| CC(=O)Nc1nc(C(=O)NC(C)c2ccc(F)cc2)cs1 (stereo not given) | -13.6% |
| C[C@H]1CN(C(=O)c2cscn2)C[C@@]12CCN(c1ccsc1)C2=O | -14.4% |
| COc1ccc(S(=O)(=O)NCCC(O)c2ccccc2)c(C)c1 (stereo not given) | -8.64% |
| Cc1ccc2nc(C3CCN(CC4CC4)CC3)nn2c1 | 32.6% |
| CC(C)c1cc(CN2CCN(c3cccnc3)CC2)n(C)n1 | 5.33% |
| CNC(=O)CN1CCO[C@H]2CN(CC3CC3)C[C@H]21 | -2.3% |
| O=c1cc(CN2CCCC2)nc2n1CCCN(Cc1ccco1)C2 | -2.44% |
| CC(=O)NCC1CCCN(Cc2nc(Cc3ccccc3F)no2)C1 (stereo not given) | 0.817% |
| CN1CCN(CCC(F)(F)C(F)F)CC12CCNC(=O)CC2 (stereo not given) | 4.17% |
| Cc1ccc(CN(Cc2[nH]cnc2C)C2CC(C)(C)NC(C)(C)C2)o1 | 17.5% |
| O=S(=O)(N1CCOCC1)N1CCc2sccc2C1 | 6.06% |
| Cc1nccn1C1(C(=O)O)CCN(Cc2ccc3nsnc3c2)CC1 | -7% |
| CC(C)CCN1CC[C@H](c2nnc(Cc3c[nH]c4ccccc34)o2)C1 | 1.15% |
| COCC(=O)N1CCCC1c1cc(N2CCN(C(C)=O)CC2)cc(C)n1 (stereo not given) | 22.7% |
| CNC(=O)[C@H]1C[C@@H]2CN(C(=O)c3ccccn3)C[C@@H]2N1S(C)(=O)=O | -7.73% |
| N#Cc1ccc(F)c(CN2CCCCC2Cn2cccn2)c1 (stereo not given) | 0.631% |
| CCc1ccc(S(=O)(=O)Nc2c(C)cccc2C(=O)O)s1 | 18.4% |
| N#Cc1nc(COc2ccc3c(c2)OCO3)oc1N1CCCC1 | -26.5% |

| SMILES | cytotoxicity at 70.5 h |
| --- | --- |
| Cc1ccc(NCc2cncc3c2CCN(C(=O)C2CC=CC2)C3)nn1 | -1.58% |
| COc1ccc2cc(C(=O)N3CCCC3Cn3cc(C)cn3)[nH]c2c1 (stereo not given) | 2.37% |
| CC(C)NC(=O)N1CCC2(CC1)Cc1ccccc1CN(C)C2=O | -2.79% |
| O=C1N(Cc2ccccc2F)CCCC12CCN(C1CCSCC1)C2 (stereo not given) | -4.98% |
| Cn1cc(C(=O)Nc2cccc(CCN3CCCC3)c2)ccc1=O | -5.46% |
| O=C(NCc1ccccn1)[C@@H]1CCO[C@@H]2CCN(Cc3ccoc3)C[C@H]21 | -1.45% |
| Cc1cc(NC(=O)CN2CCCC2c2noc(C(C)C)n2)on1 (stereo not given) | -14.1% |
| O=C1CCN(C(=O)C2(c3ccc(F)cc3)CCCC2)CCN1 | -5.37% |
| O=C(c1ccoc1)N1CCC2(CC1)C(=O)N(CC1CC1)c1ccccc12 | -2.01% |
| c1cncc(CN2C[C@H]3CCC[C@@H](CNc4cnccn4)[C@H]3C2)c1 | -4.05% |
| CN(Cc1ccncc1)C(=O)CCNS(=O)(=O)c1cccnc1 | 2.92% |
| CCCS(=O)(=O)N1CCOC2(CCCN(Cc3ccccn3)C2)C1 (stereo not given) | -2.44% |
| c1ccc(-n2cc(CN3CCCCC3Cn3cncn3)nn2)cc1 (stereo not given) | -0.323% |
| CN(C)c1nc2c(c(N(C)Cc3n[nH]c4c3CCCC4)n1)CCNCC2 | -7.02% |
| CC(=O)N1CCC2(CC1)COC(COCc1ccccn1)C2 (stereo not given) | -1.84% |
| CCOCCNc1nc(-c2ccncc2)nc2c1CCNCC2 | -4.23% |
| Cc1csc(N2CCN(C(=O)CCCNc3ncccn3)CC2)n1 | -5.37% |
| CCOC(C)c1noc(CN2CCN(c3nnc(C)s3)CC2)n1 (stereo not given) | -4.45% |
| CCC(O)(CNCc1ccncc1)c1ccc(Br)cc1 (stereo not given) | 1.46% |
| CCc1cc(N[C@@H]2C[C@H]3CC[C@@H]2C3)n2nccc2n1 | -6.76% |
| Cn1cc(CN2CCOC[C@H]2c2nc(C(C)(C)C)co2)c2ccccc21 | -2.71% |
| N#CC1=C(N)Nn2c(nnc2-c2ccccc2Br)S1 | -19% |
